In PubChem BioAssay (NCI):
Values joined by “and” are separate entries in the source; they are usually repeats but may differ in a detail not shown here. Equal entries are not always repeated.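 Compound exposure: 48 hours, 5 concentrations, 96-well plates. Abbreviation: GI50, concentration required for 50% inhibition of growth. TGI marks complete inhibition of growth.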

Experiments:
Assay in all cases: inhibition of tumour cell growth, NCI panel, 48 h
DLD-1 colon = system: DLD-1 colon
DMS 114 small cell lung = system: DMS 114 small cell lung
HOP-18 NSCLC = system: HOP-18 NSCLC
KM20L2 colon = system: KM20L2 colon
LXFL 529 NSCLC = system: LXFL 529 NSCLC
RXF-631 renal = system: RXF-631 renal
SNB-78 CNS = system: SNB-78 CNS
XF 498 CNS = system: XF 498 CNS
MDA-N = system: MDA-N

COC(=O)/C=C1\CCC2[C@@H](C(=O)CC3[C@]2(C)CCC[C@@]3(C)C(=O)OC)C1C (some centres undefined)
TGI (DLD-1 colon): > 100 µM
TGI (DMS 114 small cell lung): 37.2 µM
TGI (HOP-18 NSCLC): 79.4 µM
TGI (KM20L2 colon): 80.3 µM
TGI (LXFL 529 NSCLC): 23.7 µM
TGI (RXF-631 renal): 63.1 µM
TGI (SNB-78 CNS): > 100 µM
TGI (XF 498 CNS): 28 µM

Nc1nc(-c2cccnc2)cc(-c2cc(-c3cccnc3)nc(N)n2)n1
TGI (MDA-N): > 100 µM

Cc1nc2ccccc2c(=O)n1/N=C(\N=Nc1ccccc1)c1ccccc1Cl
TGI (DLD-1 colon): > 100 µM
TGI (DMS 114 small cell lung): > 90.1 µM
TGI (HOP-18 NSCLC): 30.1 µM
TGI (KM20L2 colon): > 100 µM
TGI (LXFL 529 NSCLC): > 100 µM
TGI (RXF-631 renal): > 100 µM
TGI (SNB-78 CNS): > 100 µM
TGI (XF 498 CNS): 44.9 µM

C[C@]12Cc3conc3C(O)=C1CC[C@@H]1C2CC[C@@]2(C)C1CC[C@@H]2O (some centres undefined)
TGI (HOP-18 NSCLC): > 100 µM
TGI (KM20L2 colon): > 100 µM
TGI (LXFL 529 NSCLC): 33.5 µM
TGI (SNB-78 CNS): > 100 µM
TGI (XF 498 CNS): 33.9 µM

O=C1CCCc2ccc([N+](=O)[O-])c(O)c21
TGI (DLD-1 colon): > 100 µM
TGI (DMS 114 small cell lung): > 100 µM
TGI (KM20L2 colon): > 100 µM
TGI (LXFL 529 NSCLC): > 100 µM
TGI (SNB-78 CNS): > 100 µM

C=CC12CCCCC1CC(C(=O)OC)=C(O)C2 (centres undefined)
TGI (DLD-1 colon): > 100 µM
TGI (DMS 114 small cell lung): > 100 µM
TGI (HOP-18 NSCLC): > 100 µM
TGI (KM20L2 colon): > 100 µM
TGI (LXFL 529 NSCLC): > 100 µM
TGI (RXF-631 renal): > 100 µM
TGI (SNB-78 CNS): > 100 µM
TGI (XF 498 CNS): > 100 µM

O=S(O)O.O=S(O)O.[Co].[NH2-].[NH2-].[NH2-].[NH2-]
GI50 (MDA-N): > 100 µM
TGI (MDA-N): > 100 µM

O=S1Nc2cccc(C(F)(F)F)c2S1 (centres undefined)
TGI (DLD-1 colon): > 100 µM
TGI (DMS 114 small cell lung): 83.2 µM
TGI (HOP-18 NSCLC): > 100 µM
TGI (KM20L2 colon): > 100 µM
TGI (LXFL 529 NSCLC): > 100 µM
TGI (SNB-78 CNS): > 100 µM
TGI (XF 498 CNS): 98.7 µM

N#CC(Sc1ccccc1)C(N)=O (centres undefined)
TGI (DLD-1 colon): > 100 µM
TGI (DMS 114 small cell lung): > 100 µM
TGI (HOP-18 NSCLC): > 100 µM
TGI (KM20L2 colon): > 100 µM
TGI (LXFL 529 NSCLC): > 100 µM
TGI (RXF-631 renal): > 100 µM
TGI (SNB-78 CNS): > 100 µM
TGI (XF 498 CNS): > 100 µM

c1cc[c]([Ge]([O]c2cccc3cccnc23)([c]2ccccc2)[c]2ccccc2)cc1
GI50 (DLD-1 colon): 3.22 µM
TGI (DLD-1 colon): 11.3 µM
GI50 (DMS 114 small cell lung): 2.32 µM
TGI (DMS 114 small cell lung): 5.06 µM
GI50 (HOP-18 NSCLC): 1.26 µM
TGI (HOP-18 NSCLC): 8.37 µM
GI50 (KM20L2 colon): 2.59 µM
TGI (KM20L2 colon): 5.97 µM
GI50 (LXFL 529 NSCLC): 2.31 µM
TGI (LXFL 529 NSCLC): 5.27 µM
GI50 (SNB-78 CNS): 4.34 µM
TGI (SNB-78 CNS): 17.7 µM

CC(=O)OCC1OC(SC2=N/C(=C\c3ccc(Br)s3)C(=O)N2c2ccccc2)C(OC(C)=O)C(OC(C)=O)C1OC(C)=O (centres undefined)
TGI (MDA-N): > 100 µM

O=CN/C=C/c1ccccc1
TGI (DLD-1 colon): > 100 µM
TGI (HOP-18 NSCLC): > 100 µM
TGI (KM20L2 colon): > 100 µM
TGI (LXFL 529 NSCLC): > 100 µM
TGI (RXF-631 renal): > 100 µM
TGI (SNB-78 CNS): > 100 µM

O=C(O)c1cnc2c(ccc3[nH]cccc32)c1=O
TGI (DLD-1 colon): > 100 µM
TGI (DMS 114 small cell lung): > 100 µM
TGI (HOP-18 NSCLC): > 100 µM
TGI (KM20L2 colon): > 100 µM
TGI (LXFL 529 NSCLC): > 100 µM
TGI (SNB-78 CNS): > 100 µM

COc1ccc2cc3c4cc(OC)c(OC)cc4ccn3c2c1
TGI (DLD-1 colon): > 100 µM
TGI (DMS 114 small cell lung): > 100 µM
TGI (HOP-18 NSCLC): > 100 µM
TGI (LXFL 529 NSCLC): > 100 µM
TGI (SNB-78 CNS): > 100 µM
TGI (XF 498 CNS): > 100 µM

O=CCCn1[nH]c(=O)ccc1=O
TGI (DLD-1 colon): > 100 µM
TGI (DMS 114 small cell lung): > 100 µM
TGI (KM20L2 colon): > 100 µM
TGI (SNB-78 CNS): > 100 µM

CC1OC(n2cc(F)c(=O)[nH]c2=O)CCC1=O (centres undefined)
TGI (DLD-1 colon): > 100 µM
TGI (DMS 114 small cell lung): > 100 µM
TGI (HOP-18 NSCLC): > 100 µM
TGI (KM20L2 colon): > 100 µM
TGI (LXFL 529 NSCLC): > 100 µM
TGI (RXF-631 renal): > 100 µM
TGI (SNB-78 CNS): > 100 µM

CN(C)CC1(C)CC/C(=C\c2ccc(Cl)cc2)C1=O (centres undefined)
TGI (DLD-1 colon): 85.7 µM
TGI (DMS 114 small cell lung): 56.2 µM
TGI (HOP-18 NSCLC): > 100 µM
TGI (KM20L2 colon): 35.7 µM
TGI (LXFL 529 NSCLC): 40.8 µM
TGI (SNB-78 CNS): > 100 µM
TGI (XF 498 CNS): > 100 µM

O/N=C1/CCCC/C1=C\c1ccc(Cl)c(Cl)c1
TGI (DLD-1 colon): > 100 µM
TGI (DMS 114 small cell lung): 59.8 µM
TGI (HOP-18 NSCLC): 59.8 µM
TGI (KM20L2 colon): 43.4 µM
TGI (LXFL 529 NSCLC): 54.4 µM
TGI (SNB-78 CNS): 70.5 µM
TGI (XF 498 CNS): 46.4 µM

NC1=NN(c2ccccc2)C(=O)C1C(=O)C(=O)Nc1ccccc1 (centres undefined)
TGI (DLD-1 colon): > 100 µM
TGI (DMS 114 small cell lung): > 100 µM
TGI (HOP-18 NSCLC): > 100 µM
TGI (KM20L2 colon): > 100 µM
TGI (LXFL 529 NSCLC): > 100 µM
TGI (SNB-78 CNS): > 100 µM
TGI (XF 498 CNS): > 100 µM

COc1ccc(/C=C/c2onc3c(=O)n(C)nc(-c4ccccc4)c23)cc1
TGI (DLD-1 colon): > 100 µM
TGI (DMS 114 small cell lung): > 100 µM
TGI (HOP-18 NSCLC): > 100 µM
TGI (KM20L2 colon): > 100 µM
TGI (LXFL 529 NSCLC): > 100 µM
TGI (XF 498 CNS): > 100 µM

CN1CCc2ccccc2C1Cc1ccccc1NC(=O)c1sc2ccccc2c1Cl (centres undefined)
TGI (MDA-N): > 100 µM

C=C(C)CC(C(=O)O)c1ccc(C)cc1 (centres undefined)
TGI (DLD-1 colon): > 100 µM
TGI (DMS 114 small cell lung): > 100 µM
TGI (HOP-18 NSCLC): > 100 µM
TGI (KM20L2 colon): > 100 µM
TGI (SNB-78 CNS): > 100 µM
TGI (XF 498 CNS): > 100 µM

C[C@@H]1CC[C@@]2(C)OC(c3ccccc3)[C@H](CO)N2C1=O (some centres undefined)
TGI (DLD-1 colon): > 100 µM
TGI (DMS 114 small cell lung): > 100 µM
TGI (HOP-18 NSCLC): > 100 µM
TGI (KM20L2 colon): > 100 µM
TGI (SNB-78 CNS): > 100 µM
TGI (XF 498 CNS): > 100 µM

CC(C)N(C(=O)C12C3C4C5C3C1(C(=O)O)C5C42)C(C)C (centres undefined)
TGI (DLD-1 colon): > 100 µM
TGI (DMS 114 small cell lung): > 100 µM
TGI (KM20L2 colon): > 100 µM
TGI (LXFL 529 NSCLC): > 100 µM
TGI (RXF-631 renal): > 100 µM
TGI (SNB-78 CNS): > 100 µM
TGI (XF 498 CNS): > 100 µM

CCOC(=O)C1CC(=O)C=C2CCCCC21 (centres undefined)
TGI (DLD-1 colon): > 100 µM
TGI (DMS 114 small cell lung): > 100 µM
TGI (LXFL 529 NSCLC): > 100 µM
TGI (RXF-631 renal): > 100 µM
TGI (SNB-78 CNS): > 100 µM
TGI (XF 498 CNS): > 100 µM

CC(=O)N1c2ccccc2N(C(C)=O)C1c1ccc(C2N(C(C)=O)c3ccccc3N2C(C)=O)[nH]1
TGI (DMS 114 small cell lung): > 100 µM
TGI (KM20L2 colon): > 100 µM
TGI (LXFL 529 NSCLC): > 100 µM
TGI (RXF-631 renal): > 100 µM
TGI (XF 498 CNS): > 100 µM

CC(=O)O[C@@H]1c2c(c3c(=O)c4cccc(O)c4c(=O)c=3c2=[N+]=[N-])[C@H](OC(C)=O)[C@@H](OC(C)=O)[C@]1(C)O
GI50 (MDA-N): 0.235 µM
TGI (MDA-N): 1.05 µM and 0.733 µM

COc1cccc(/C=C2\CCC(CN(C)C)C2=O)c1 (centres undefined)
TGI (DLD-1 colon): 7.81 µM
TGI (DMS 114 small cell lung): 42.4 µM
TGI (HOP-18 NSCLC): 33.2 µM
TGI (KM20L2 colon): 31.7 µM
TGI (LXFL 529 NSCLC): 6.45 µM
TGI (MDA-N): 16.8 µM
TGI (RXF-631 renal): 20.2 µM
TGI (SNB-78 CNS): 66.5 µM
TGI (XF 498 CNS): 33.6 µM

C=CCCn1nc(-c2ccccc2)oc1=O
TGI (DLD-1 colon): > 100 µM
TGI (HOP-18 NSCLC): > 100 µM
TGI (KM20L2 colon): > 100 µM
TGI (LXFL 529 NSCLC): > 100 µM
TGI (SNB-78 CNS): > 100 µM
TGI (XF 498 CNS): > 100 µM
